# Experimental data as given in US9718828B2 (MERCK SHARP & DOHME CORP., priority 2011, dated 2017).
# Counter-ions that a name gives are not always drawn.
# Biological target: Btk enzyme (His-Btk) (Homo sapiens (Human), UniProt Q06187)
# Test: Btk enzyme activity, IMAP fluorescence polarization assay (Assay Method A)
# Settings: not given
# Chain of Btk enzyme (His-Btk) (Q06187 whole entry): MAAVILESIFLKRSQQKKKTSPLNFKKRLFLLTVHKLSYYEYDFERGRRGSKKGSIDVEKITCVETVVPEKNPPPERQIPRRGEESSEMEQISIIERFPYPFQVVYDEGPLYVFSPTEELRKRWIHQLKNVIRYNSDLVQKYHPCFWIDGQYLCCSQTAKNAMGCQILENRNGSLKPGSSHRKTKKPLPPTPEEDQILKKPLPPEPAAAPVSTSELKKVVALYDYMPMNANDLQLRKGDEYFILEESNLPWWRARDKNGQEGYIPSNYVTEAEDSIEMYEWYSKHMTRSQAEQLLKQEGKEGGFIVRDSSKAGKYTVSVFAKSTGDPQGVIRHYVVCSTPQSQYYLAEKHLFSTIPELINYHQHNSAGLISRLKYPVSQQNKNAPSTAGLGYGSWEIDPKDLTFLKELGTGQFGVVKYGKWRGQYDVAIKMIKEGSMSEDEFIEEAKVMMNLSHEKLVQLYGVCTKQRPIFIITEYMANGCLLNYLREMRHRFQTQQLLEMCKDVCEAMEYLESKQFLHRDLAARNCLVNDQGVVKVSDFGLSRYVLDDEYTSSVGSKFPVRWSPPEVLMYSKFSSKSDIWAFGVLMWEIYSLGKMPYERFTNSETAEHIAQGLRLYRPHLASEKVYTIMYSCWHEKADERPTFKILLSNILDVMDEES
row,SMILES,EC50 [nM]
1,"COCCOCCOCCOCCOCCOCCOCCOCCC(=O)N1CCC[C@@H](c2nc(-c3ccc(C(=O)Nc4cc(C(F)(F)F)ccn4)cc3)c3c(N)nccn23)C1 [Example 80, (R)-4-(3-(1-2,5,8,11,14,17,20,23-octaoxahexacosanepiperidin-3-yl)-8-aminoimidazo[1,5-a]pyrazin-1-yl)-N-(4-(trifluoromethyl)pyridin-2-yl)benzamide]",< 10
2,"CCN(CC)c1nc(-c2ccc(C(=O)Nc3cc(C(F)(F)F)ccn3)cc2)c2c(N)nccn12 [Example 216, 4-(8-amino-3-(diethylamino)imidazo[1,5-a]pyrazin-1-yl)-N-(4-(trifluoromethyl)pyridin-2-yl)benzamide]",10 to 100
3,"Cc1nc(-c2ccc(C(=O)Nc3cc(C(F)(F)F)ccn3)cc2)c2c(N)ncc(C(O)CC(C)C)n12 (stereo not shown) [Example 323, 4-(8-amino-5-(1-hydroxy-3-methylbutyl)-3-methylimidazo[1,5-a]pyrazin-1-yl)-N-(4-(trifluoromethyl)pyridin-2-yl)benzamide]",10 to 100
4,"CN1CCc2nc(NC(=O)c3ccc(-c4nc([C@H]5CC[C@H](O)CC5)n5ccnc(N)c45)cc3)sc2C1 [Example 18, 4-(8-amino-3-((trans)-4-hydroxycyclohexyl)imidazo[1,5-a]pyrazin-1-yl)-N-(5-methyl-4,5,6,7-tetrahydrothiazolo[5,4-c]pyridin-2-yl)benzamide]",100 to 1000
5,"Nc1nccn2c(C3CCOCC3)nc(-c3ccc(C(=O)Nc4nccs4)cc3)c12 [Example 29, 4-(8-amino-3-(tetrahydro-2H-pyran-4-yl)imidazo[1,5-a]pyrazin-1-yl)-N-(thiazol-2-yl)benzamide]",100 to 1000
6,"CC(C)(C#N)C(=O)N1CCC[C@@H](n2nc(-c3ccc(C(=O)Nc4cc(C(F)(F)F)ccn4)cc3)c3c(N)ncnc32)C1 [Example 263, (R)-4-(4-amino-1-(1-(2-cyano-2-methylpropanoyl)piperidin-3-yl)-1H-pyrazolo[3,4-d]pyrimidin-3-yl)-N-(4-(trifluoromethyl)pyridin-2-yl)benzamide]",10 to 100
7,"Nc1nccn2c(C3CC4CCC3N4C(=O)OCc3ccccc3)nc(-c3ccc(C(=O)Nc4ccccn4)cc3)c12 (stereo not shown) [Example 149, benzyl 2-(8-amino-1-(4-(pyridin-2-ylcarbamoyl)phenyl)imidazo [1,5-a]pyrazin-3-yl)-7-azabicyclo[2.2.1]heptane-7-carboxylate]",10 to 100
8,"COCCC(=O)N1C2CCC1C(c1nc(-c3ccc(C(=O)Nc4ccccn4)cc3)c3c(N)nccn13)C2 (stereo not shown) [Example 148, 4-(8-amino-3-(7-(3-methoxypropanoyl)-7-azabicyclo[2.2.1]heptan-2-yl)imidazo[1,5-a]pyrazin-1-yl)-N-(pyridin-2-yl)benzamide]",10 to 100
9,"CCc1cnc(NC(=O)c2ccc(-c3nc(C4CCOCC4)n4ccnc(N)c34)cc2)s1 [Example 28, 4-(8-amino-3-(tetrahydro-2H-pyran-4-yl)imidazo[1,5-a]pyrazin-1-yl)-N-(5-ethylthiazol-2-yl)benzamide]",10 to 100
10,"CC(C)C(=O)N1CCOC(c2nc(-c3ccc(C(=O)Nc4cc(C(F)(F)F)ccn4)cc3)c3c(N)nccn23)C1 (stereo not shown) [Example 173, 4-(8-amino-3-(4-isobutyrylmorpholin-2-yl)imidazo[1,5-a]pyrazin-1-yl)-N-(4-(trifluoromethyl)pyridin-2-yl)benzamide]",< 10

# More lines, now with the values ahead:
row,EC50 [nM],SMILES
1,10 to 100,"CN(C)C(=O)C(=O)N1CCC[C@@H](c2nc(-c3ccc(C(=O)Nc4cc(C5CC5)ccn4)cc3)c3c(N)nccn23)C1 [Example 111, (R)-4-(8-amino-3-(1-(2-(dimethylamino)-2-oxoacetyl)piperidin-3-yl)imidazo[1,5-a]pyrazin-1-yl)-N-(4-cyclopropylpyridin-2-yl)benzamide]"
2,< 10,"Nc1nccn2c([C@@H]3CCCN(C(=O)C4(O)CCC4)C3)nc(-c3ccc(C(=O)Nc4cc(C(F)(F)F)ccn4)cc3)c12 [Example 81, (R)-4-(8-amino-3-(1-(1-hydroxycyclobutanecarbonyl)piperidin-3-yl)imidazo[1,5-a]pyrazin-1-yl)-N-(4-(trifluoromethyl)pyridin-2-yl)benzamide]"
3,< 10,"CCC(=O)N1CCC[C@@H](c2nc(-c3ccc(C(=O)Nc4cc(C5CC5)ccn4)cc3)c3c(N)nccn23)C1 [Example 60, (R)-4-(8-amino-3-(1-propionylpiperidin-3-yl)imidazo[1,5-a]pyrazin-1-yl)-N-(4-cyclopropylpyridin-2-yl)benzamide]"
4,< 10,"N#Cc1ccnc(NC(=O)c2ccc(-c3nc(C4CCCC4)n4ccnc(N)c34)cc2)c1 [Example 44, 4-(8-amino-3-cyclopentylimidazo[1,5-a]pyrazin-1-yl)-N-(4-cyanopyridin-2-yl)benzamide, TFA salt]"
5,10 to 100,Nc1nccn2c([C@@H]3CCCN(C(=O)NC45CC6CC(CC(C6)C4)C5)C3)nc(-c3ccc(C(=O)Nc4cc(C5CC5)ccn4)cc3)c12 [Example 121]
6,< 10,"Cc1noc([C@H]2C[C@@H]2C(=O)N2CCC[C@@H](c3nc(-c4ccc(C(=O)Nc5cc(C(F)(F)F)ccn5)cc4)c4c(N)nccn34)C2)n1 [Example 82, 4-(8-amino-3-((R)-1-((1S,2S)-2-(3-methyl-1,2,4-oxadiazol-5-yl)cyclopropanecarbonyl)piperidin-3-yl)imidazo[1,5-a]pyrazin-1-yl)-N-(4-(trifluoromethyl)pyridin-2-yl)benzamide]"
7,10 to 100,"Nc1nccn2c([C@@H]3CCCN(CC4CC4)C3)nc(-c3ccc(C(=O)Nc4cc(C(F)(F)F)ccn4)cc3)c12 [Example 140, (R)-4-(8-amino-3-(1-(cyclopropylmethyl)piperidin-3-yl)imidazo[1,5-a]pyrazin-1-yl)-N-(4-(trifluoromethyl)pyridin-2-yl)benzamide, TFA salt]"

# Same assay, conditions: read-out: EC50 Btk activity values - Assay Method A; IMAP-FP, 60 min pre-incubation, 5 μM ATP
row,EC50 [nM],SMILES
1,≥ 1000,"Nc1nccn2c1c(-c1ccc(C(=O)Nc3nc4c(s3)CNCC4)cc1)nc2[C@H]1CC[C@H](O)CC1 [Example 17, 4-(8-amino-3-((trans)-4-hydroxycyclohexyl)imidazo[1,5-a]pyrazin-1-yl)-N-(4,5,6,7-tetrahydrothiazolo[5,4-c]pyridin-2-yl)benzamide]"

# Same assay, conditions: read-out: EC50 Btk activity values - Assay Method A; IMAP-FP, 60 min pre-incubation, 5 μM ATP; class 100-1000 is given as ≧100 nM-<1 μM
row,SMILES,EC50 [nM]
1,"CC1(C(=O)N2CCC[C@@H](c3nc(-c4ccc(C(=O)Nc5cc(C(F)(F)F)ccn5)cc4)c4c(N)ncc(-c5ccco5)n34)C2)COC1 [Example 311, (R)-4-(8-amino-5-(furan-2-yl)-3-(1-(3-methyloxetane-3-carbonyl)piperidin-3-yl)imidazo[1,5-a]pyrazin-1-yl)-N-(4-(trifluoromethyl)pyridin-2-yl)benzamide]",< 10
2,"CC(C)(F)C(=O)N1CCC[C@@H](c2nc(-c3ccc(C(=O)Nc4cc(C(F)(F)F)ccn4)cc3)c3c(N)ncnn23)C1 [Example 257, (R)-4-(4-amino-7-(1-(2-fluoro-2-methylpropanoyl)piperidin-3-yl)imidazo[1,5-f][1,2,4]triazin-5-yl)-N-(4-(trifluoromethyl)pyridin-2-yl)benzamide]",< 10
3,"CCOCCC(=O)N1CCC[C@@H](c2nc(-c3ccc(C(=O)Nc4cc(C(F)(F)F)ccn4)cc3)c3c(N)ncnn23)C1 [Example 259, (R)-4-(4-amino-7-(1-(3-ethoxypropanoyl)piperidin-3-yl)imidazo[1,5-f][1,2,4]triazin-5-yl)-N-(4-(trifluoromethyl)pyridin-2-yl)benzamide]",< 10

# Other lines, results leading:
row,EC50 [nM],SMILES
1,< 10,"COCCC(=O)N[C@H]1CCC[C@@H](c2nc(-c3ccc(C(=O)Nc4cc(C(F)(F)F)ccn4)cc3)c3c(N)nccn23)C1 (relative stereo) [Example 158, 4-(8-amino-3-((cis)-3-(3-methoxypropanamido)cyclohexyl)imidazo [1,5-a]pyrazin-1-yl)-N-(4-(trifluoromethyl)pyridin-2-yl)benzamide]"
2,< 10,"Nc1nccn2c([C@@H]3CCCN(Cc4ccncc4)C3)nc(-c3ccc(C(=O)Nc4cc(C(F)(F)F)ccn4)cc3)c12 [Example 141, (R)-4-(8-amino-3-(1-(pyridin-4-ylmethyl)piperidin-3-yl)imidazo[1,5-a]pyrazin-1-yl)-N-(4-(trifluoromethyl)pyridin-2-yl)benzamide, TFA salt]"
3,< 10,"C[C@H]1CC[C@@H](c2nc(-c3ccc(C(=O)Nc4ccccn4)cc3)c3c(N)nccn23)CN1C(=O)C1CCC1 (relative stereo) [Example 204, 4-(8-amino-3-((cis)-1-(cyclobutanecarbonyl)-6-methylpiperidin-3-yl)imidazo[1,5-a]pyrazin-1-yl)-N-(pyridin-2-yl)benzamide, TFA salt]"
4,< 10,"C[C@H]1CC[C@@H](c2nc(-c3ccc(C(=O)Nc4ccccn4)cc3)c3c(N)nccn23)CN1C(=O)CC1CC1 (relative stereo) [Example 191, 4-(8-amino-3-((cis)-1-(2-cyclopropylacetyl)-6-methylpiperidin-3-yl)imidazo[1,5-a]pyrazin-1-yl)-N-(pyridin-2-yl)benzamide, TFA salt]"
5,< 10,"C[C@H]1CC[C@@H](c2nc(-c3ccc(C(=O)Nc4ccccn4)cc3)c3c(N)nccn23)CN1C(=O)C1CC(F)(F)C1 (relative stereo) [Example 203, 4-(8-amino-3-((cis)-1-(3,3-difluorocyclobutanecarbonyl)-6-methylpiperidin-3-yl)imidazo[1,5-a]pyrazin-1-yl)-N-(pyridin-2-yl)benzamide, TFA salt]"
6,< 10,"CCNC(=O)N1CCC[C@@H](c2nc(-c3ccc(C(=O)Nc4cc(C#N)ccn4)cc3)c3c(N)nccn23)C1 [Example 101, (R)-3-(8-amino-1-(4-(4-cyanopyridin-2-ylcarbamoyl)phenyl)imidazo [1,5-a]pyrazin-3-yl)-N-ethylpiperidine-1-carboxamide]"
7,< 10,"CSCCC(=O)N1C[C@H](c2nc(-c3ccc(C(=O)Nc4cc(C5CC5)ccn4)cc3)c3c(N)nccn23)CC[C@@H]1C (relative stereo) [Example 198, 4-(8-amino-3-((cis)-6-methyl-1-(3-(methylthio)propanoyl)-piperidin-3-yl)imidazo[1,5-a]pyrazin-1-yl)-N-(4-cyclopropylpyridin-2-yl)benzamide, TFA salt]"
